# Where two headings read alike, the source gives them in different places.
# Assays:
# [1] = molecular target: T1, BTK (Homo sapiens, UniProt Q06187); test: BTK degradation in NAMALWA cells, immunoblot; type: cell-based
# T1 construct: host or cells: NAMALWA
# [2] = Pharmacokinetics after IV compound administration in mice; type: in vivo; conditions: for pharmacokinetic profile relative to COMPOUND 102: IV mice; for Clearance (Cl) / Half Life (t1/2) / Cmax / AUC(0-t): IV mice (1 mg/Kg); for Cmax: Tmax 0.033 h; for AUC(0-t): mouse, in vivo, read-out: Exposure (AUClast)
# [3] = molecular target: T2, HER3 (Homo sapiens, UniProt P21860); test: HER3 (ERBB3) degradation, immunoblot; type: cell-based; conditions: Table 5
# T2 construct: endogenous in cells
# T2 sequence (P21860 20-1342): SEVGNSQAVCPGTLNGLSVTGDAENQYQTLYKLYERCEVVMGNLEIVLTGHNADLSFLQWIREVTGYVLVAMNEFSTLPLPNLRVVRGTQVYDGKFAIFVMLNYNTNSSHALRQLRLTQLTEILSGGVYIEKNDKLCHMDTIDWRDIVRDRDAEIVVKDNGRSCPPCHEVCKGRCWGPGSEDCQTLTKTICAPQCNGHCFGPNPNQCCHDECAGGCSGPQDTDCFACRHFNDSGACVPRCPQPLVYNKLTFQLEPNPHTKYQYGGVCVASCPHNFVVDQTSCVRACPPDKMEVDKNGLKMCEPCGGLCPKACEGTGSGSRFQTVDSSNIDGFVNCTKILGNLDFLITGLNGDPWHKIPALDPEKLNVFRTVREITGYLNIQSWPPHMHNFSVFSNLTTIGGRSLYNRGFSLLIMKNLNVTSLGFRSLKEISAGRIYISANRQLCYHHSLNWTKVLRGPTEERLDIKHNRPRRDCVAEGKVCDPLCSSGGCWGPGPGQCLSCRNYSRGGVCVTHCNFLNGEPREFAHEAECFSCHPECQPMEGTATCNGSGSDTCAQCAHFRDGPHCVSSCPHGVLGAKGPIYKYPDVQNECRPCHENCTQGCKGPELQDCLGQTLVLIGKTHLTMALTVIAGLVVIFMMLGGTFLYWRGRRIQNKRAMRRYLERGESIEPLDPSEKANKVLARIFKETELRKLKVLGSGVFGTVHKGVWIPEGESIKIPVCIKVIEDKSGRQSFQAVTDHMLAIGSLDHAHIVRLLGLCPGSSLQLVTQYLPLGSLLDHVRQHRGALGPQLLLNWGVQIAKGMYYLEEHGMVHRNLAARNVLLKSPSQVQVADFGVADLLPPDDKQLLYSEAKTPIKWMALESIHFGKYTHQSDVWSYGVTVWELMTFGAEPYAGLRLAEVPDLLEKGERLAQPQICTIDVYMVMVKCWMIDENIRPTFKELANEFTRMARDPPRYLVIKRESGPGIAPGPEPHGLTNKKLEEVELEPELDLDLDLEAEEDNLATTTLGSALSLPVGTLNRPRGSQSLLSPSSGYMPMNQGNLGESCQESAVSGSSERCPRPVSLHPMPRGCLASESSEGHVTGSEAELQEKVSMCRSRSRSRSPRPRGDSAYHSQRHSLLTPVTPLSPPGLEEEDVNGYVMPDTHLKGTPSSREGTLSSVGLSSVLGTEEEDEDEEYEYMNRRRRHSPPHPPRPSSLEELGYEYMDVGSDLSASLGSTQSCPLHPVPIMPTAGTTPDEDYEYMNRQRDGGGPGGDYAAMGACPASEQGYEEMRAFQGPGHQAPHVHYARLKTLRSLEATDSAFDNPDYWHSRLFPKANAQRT
# T1 sequence (Q06187 whole entry): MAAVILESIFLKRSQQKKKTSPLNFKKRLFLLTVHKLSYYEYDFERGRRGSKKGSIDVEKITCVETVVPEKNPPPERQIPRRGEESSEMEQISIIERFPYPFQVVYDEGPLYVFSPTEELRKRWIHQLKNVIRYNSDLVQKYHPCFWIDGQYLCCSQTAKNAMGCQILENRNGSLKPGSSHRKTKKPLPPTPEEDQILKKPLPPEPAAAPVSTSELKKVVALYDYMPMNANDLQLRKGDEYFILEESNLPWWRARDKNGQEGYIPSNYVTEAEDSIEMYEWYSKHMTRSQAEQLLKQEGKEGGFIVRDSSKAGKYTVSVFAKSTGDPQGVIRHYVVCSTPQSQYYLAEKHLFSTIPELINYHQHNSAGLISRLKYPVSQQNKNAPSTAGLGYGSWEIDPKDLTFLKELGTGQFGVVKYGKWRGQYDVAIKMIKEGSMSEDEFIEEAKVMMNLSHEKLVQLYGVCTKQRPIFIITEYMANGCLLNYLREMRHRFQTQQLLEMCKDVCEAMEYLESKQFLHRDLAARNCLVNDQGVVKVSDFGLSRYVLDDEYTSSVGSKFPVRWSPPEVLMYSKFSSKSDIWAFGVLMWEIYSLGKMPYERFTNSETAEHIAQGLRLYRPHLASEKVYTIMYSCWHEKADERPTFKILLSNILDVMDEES
smiles,measurement,setting,value
"Nc1ncnc2c1c(-c1ccc(Oc3ccccc3)cc1)nn2C1CCN(CCOCCOCCOc2ccc3c(c2)C(=O)N(C2CCC(=O)NC2=O)C3=O)CC1 (stereo not drawn) [COMPOUND 131, 5-(2-(2-(2-(4-(4-amino-3-(4-phenoxyphenyl)-1H-pyrazolo[3,4-d]pyrimidin-1-yl)piperidin-1-yl)ethoxy)ethoxy)ethoxy)-2-(2,6-dioxopiperidin-3-yl)isoindoline-1,3-dione]",degradation potency/profile compared with COMPOUND 102,[1]; NAMALWA cells,similarly potent degradation profile as COMPOUND 102
same,DC50,"[1]; Table 5, NAMALWA cells",11 nM
same,DC50,"[1]; Table 6, in NAMALWA cells line",11 nM
same,Dmax,"[1]; Table 6, in NAMALWA cells line, read-out: Dmax",> 99%
same,pharmacokinetic profile relative to COMPOUND 102,[2],superior pharmacokinetic profiles relative to COMPOUND 102
same,Clearance (Cl),[2],102 mL/min/kg
same,Half Life (t1/2),[2],1.62 h
same,Cmax,[2],831 ng/mL
same,AUC(0-t),[2],166 ng·h/mL
"Nc1ncnc2c1c(-c1ccc(Oc3ccccc3)cc1)nn2C1CCN(CCOCCOCCOc2ccc3c(c2)CN(C2CCC(=O)NC2=O)C3=O)CC1 (stereo not drawn) [COMPOUND 135, 3-(5-(2-(2-(2-(4-(4-amino-3-(4-phenoxyphenyl)-1H-pyrazolo[3,4-d]pyrimidin-1-yl)piperidin-1-yl)ethoxy)ethoxy)ethoxy)-1-oxoisoindolin-2-yl)piperidine-2,6-dione]",degradation potency/profile compared with COMPOUND 102,[1]; NAMALWA cells,similarly potent to COMPOUND 102
same,Dmax,"[1]; NAMALWA cells, read-out: Dmax",> 99%
same,DC50,"[1]; Table 5, NAMALWA cells",8 nM
same,DC50,"[1]; Table 6, in NAMALWA cells line",8 nM
same,Dmax,"[1]; Table 6, in NAMALWA cells line",>99%
same,pharmacokinetic profile relative to COMPOUND 102,[2],superior pharmacokinetic profiles relative to COMPOUND 102
same,Clearance (Cl),[2],40.8 mL/min/kg
same,Half Life (t1/2),[2],1.64 h
same,Cmax,[2],2100 ng/mL
same,AUC(0-t),[2],405 ng·h/mL
"Nc1ncnc2c1c(-c1ccc(Oc3ccccc3)cc1)nn2C1CCN(CCOCC(=O)Nc2cccc3c2C(=O)N(C2CCC(=O)NC2=O)C3=O)CC1 (stereo not drawn) [Compound 100, 2-(2-(4-(4-amino-3-(4-phenoxyphenyl)-1H-pyrazolo[3,4-d]pyrimidin-1-yl)piperidin-1-yl)ethoxy)-N-(2-(2,6-dioxopiperidin-3-yl)-1,3-dioxoisoindolin-4-yl)acetamide]",ability to degrade BTK,[1]; NAMALWA cells,inability to degrade BTK
"Nc1ncnc2c1c(-c1ccc(Oc3ccccc3)cc1)nn2C1CCN(CCOCCOCC(=O)Nc2cccc3c2C(=O)N(C2CCC(=O)NC2=O)C3=O)CC1 (stereo not drawn) [Compound 101, 2-(2-(2-(4-(4-amino-3-(4-phenoxyphenyl)-1H-pyrazolo[3,4-d]pyrimidin-1-yl)piperidin-1-yl)ethoxy)ethoxy)-N-(2-(2,6-dioxopiperidin-3-yl)-1,3-dioxoisoindolin-4-yl)acetamide]",ability to degrade BTK,[1]; NAMALWA cells,inability to degrade BTK
"Nc1ncnc2c1c(-c1ccc(Oc3ccccc3)cc1)nn2C1CCN(CCCOCCCOCCC(=O)Nc2cccc3c2C(=O)N(C2CCC(=O)NC2=O)C3=O)CC1 (stereo not drawn) [Compound 103, 3-(3-(3-(4-(4-amino-3-(4-phenoxyphenyl)-1H-pyrazolo[3,4-d]pyrimidin-1-yl)piperidin-1-yl)propoxy)propoxy)-N-(2-(2,6-dioxopiperidin-3-yl)-1,3-dioxoisoindolin-4-yl)propanamide]",HER3 Degradation,[3],No
"Nc1ncnc2c1c(-c1ccc(Oc3ccccc3)cc1)nn2C1CCN(CCCCOCCCCOCC(=O)Nc2ccc3c(c2)C(=O)N(C2CCC(=O)NC2=O)C3=O)CC1 (stereo not drawn) [Compound 105, 2-[4-[4-[4-[4-amino-3-(4-phenoxyphenyl)pyrazolo[3,4-d]pyrimidin-1-yl]-1-piperidyl]butoxy]butoxy]-N-[2-(2,6-dioxo-3-piperidyl)-1,3-dioxo-isoindolin-5-yl]acetamide]",HER3 Degradation,[3],No
"Nc1ncnc2c1c(-c1ccc(Oc3ccccc3)cc1)nn2C1CCN(CCCCCCOCCCCCCOCC(=O)Nc2cccc3c2C(=O)N(C2CCC(=O)NC2=O)C3=O)CC1 (stereo not drawn) [Compound 107, 2-(6-(6-(4-(4-amino-3-(4-phenoxyphenyl)-1H-pyrazolo[3,4-d]pyrimidin-1-yl)piperidin-1-yl)hexyloxy)hexyloxy)-N-(2-(2,6-dioxopiperidin-3-yl)-1,3-dioxoisoindolin-4-yl)acetamide]",HER3 Degradation,[3],No
"Cc1ncsc1-c1ccc(CNC(=O)[C@@H]2C[C@@H](O)CN2C(=O)[C@@H](NC(=O)COCCOCCOCCOCCN2CCC(n3nc(-c4ccc(Oc5ccccc5)cc4)c4c(N)ncnc43)CC2)C(C)(C)C)cc1 [Compound 109, (2S,4R)-1-((S)-17-(4-(4-amino-3-(4-phenoxyphenyl)-1H-pyrazolo[3,4-d]pyrimidin-1-yl)piperidin-1-yl)-2-tert-butyl-4-oxo-6,9,12,15-tetraoxa-3-azaheptadecane)-4-hydroxy-N-(4-(4-methylthiazol-5-yl)benzyl)pyrrolidine-2-carboxamide]",HER3 Degradation,[3],No
"Cc1ncsc1-c1ccc(CNC(=O)[C@@H]2C[C@@H](O)CN2C(=O)[C@@H](NC(=O)COCCCCCOCCCCCCN2CCC(n3nc(-c4ccc(Oc5ccccc5)cc4)c4c(N)ncnc43)CC2)C(C)(C)C)cc1 [Compound 111, (2S,4R)-1-((S)-2-(2-(5-(6-(4-(4-amino-3-(4-phenoxyphenyl)-1H-pyrazolo[3,4-d]pyrimidin-1-yl)piperidin-1-yl)hexyloxy)pentyloxy)acetamido)-3,3-dimethylbutanoyl)-4-hydroxy-N-(4-(4-methylthiazol-5-yl)benzyl)pyrrolidine-2-carboxainide]",HER3 Degradation,[3],No
"Cc1ncsc1-c1ccc(CNC(=O)[C@@H]2C[C@@H](O)CN2C(=O)[C@@H](NC(=O)COCCOCCOCCOCCCCN2CCC(n3nc(-c4ccc(Oc5ccccc5)cc4)c4c(N)ncnc43)CC2)C(C)(C)C)cc1 [Compound 113, (2S,4R)-1-((S)-19-(4-(4-amino-3-(4-phenoxyphenyl)-1H-pyrazolo[3,4-d]pyrimidin-1-yl)piperidin-1-yl)-2-tert-butyl-4-oxo-6,9,12,15-tetraoxa-3-azanonadecane)-4-hydroxy-N-(4-(4-methylthiazol-5-yl)benzyl)pyrrolidine-2-carboxamide]",HER3 Degradation,[3],No
"Cc1ncsc1-c1ccc(CNC(=O)[C@@H]2C[C@@H](O)CN2C(=O)[C@@H](NC(=O)COCCOCCOCCOCCN2CCN(C3CCC(n4nc(-c5ccc(Oc6ccccc6)cc5)c5c(N)ncnc54)CC3)CC2)C(C)(C)C)cc1 (stereo partly drawn) [Compound 114, (2S,4R)-1-((S)-17-(4-(4-(4-amino-3-(4-phenoxyphenyl)-1H-pyrazolo[3,4-d]pyrimidin-1-yl)cyclohexyl)piperazin-1-yl)-2-tert-butyl-4-oxo-6,9,12,15-tetraoxa-3-azaheptadecane)-4-hydroxy-N-(4-(4-methylthiazol-5-yl)benzyl)pyrrolidine-2-carboxamide]",HER3 Degradation,[3],No
"Cc1ncsc1-c1ccc(CNC(=O)[C@@H]2C[C@@H](O)CN2C(=O)[C@@H](NC(=O)COCCOCCOCCOCCCCCCN2CCC(n3nc(-c4ccc(Oc5ccccc5)cc4)c4c(N)ncnc43)CC2)C(C)(C)C)cc1 [Compound 115, (2S,4R)-1-((S)-22-(4-(4-amino-3-(4-phenoxyphenyl)-1H-pyrazolo[3,4-d]pyrimidin-1-yl)piperidin-1-yl)-2,2-dimethyl-5-oxo-7,10,13,16-tetraoxa-4-azadocosanecarbonyl)-4-hydroxy-N-(4-(4-methylthiazol-5-yl)benzyl)pyrrolidine-2-carboxamide]",HER3 Degradation,[3],No
"Cc1ncsc1-c1ccc(CNC(=O)[C@@H]2C[C@@H](O)CN2C(=O)[C@H](C(C)C)N2Cc3ccccc3C2=O)c(OCCCCOCCCCN2CCC(n3nc(-c4ccc(Oc5ccccc5)cc4)c4c(N)ncnc43)CC2)c1 [Compound 127, (2S,4R)—N-(2-(4-(4-(4-(4-amino-3-(4-phenoxyphenyl)-1H-pyrazolo[3,4-d]pyrimidin-1-yl)piperidin-1-yl)butoxy)butoxy)-4-(4-methylthiazol-5-yl)benzyl)-4-hydroxy-1-((S)-3-methyl-2-(1-oxoisoindolin-2-yl)butanoyl)pyrrolidine-2-carboxamide]",Dmax,"[1]; NAMALWA cells, read-out: Dmax",< 50%
same,DC50,"[1]; Table 5, NAMALWA cells",> 1000 nM
same,DC50,"[1]; Table 6, in NAMALWA cells line",> 1000 nM
same,Dmax,"[1]; Table 6, in NAMALWA cells line",<50%
"Cc1ncsc1-c1ccc(CNC(=O)[C@@H]2C[C@@H](O)CN2C(=O)[C@H](C(C)C)N2Cc3ccccc3C2=O)c(OCCCOCCC(=O)N2CCC(n3nc(-c4ccc(Oc5ccccc5)cc4)c4c(N)ncnc43)CC2)c1 [Compound 128, (2S,4R)—N-(2-(3-(3-(4-(4-amino-3-(4-phenoxyphenyl)-1H-pyrazolo[3,4-d]pyrimidin-1-yl)piperidin-1-yl)-3-oxopropoxy)propoxy)-4-(4-methylthiazol-5-yl)benzyl)-4-hydroxy-1-((S)-3-methyl-2-(1-oxoisoindolin-2-yl)butanoyl)pyrrolidine-2-carboxamide]",Dmax,"[1]; NAMALWA cells, read-out: Dmax",< 50%
same,DC50,"[1]; Table 6, in NAMALWA cells line",> 1000 nM
same,Dmax,"[1]; Table 6, in NAMALWA cells line",<50%
"Cc1ncsc1-c1ccc(CNC(=O)[C@@H]2C[C@@H](O)CN2C(=O)[C@@H](NC(=O)COCCOCCN2CCC(n3nc(-c4ccc(Oc5ccccc5)cc4)c4c(N)ncnc43)CC2)C(C)(C)C)cc1 [Compound 129, (2S,4R)-1-((S)-2-(2-(2-(2-(4-(4-amino-3-(4-phenoxyphenyl)-1H-pyrazolo[3,4-d]pyrimidin-1-yl)piperidin-1-yl)ethoxy)ethoxy)acetamido)-3,3-dimethylbutanoyl)-4-hydroxy-N-(4-(4-methylthiazol-5-yl)benzyl)pyrrolidine-2-carboxamide]",Dmax,"[1]; NAMALWA cells, read-out: Dmax",< 50%
same,DC50,"[1]; Table 5, NAMALWA cells",> 1000 nM
same,Max,"[1]; Table 5, at 2.5 μM",49%
same,DC50,"[1]; Table 6, in NAMALWA cells line",> 1000 nM
same,Dmax,"[1]; Table 6, in NAMALWA cells line",<50%
"CN1C(=O)CCC(N2C(=O)c3ccc(NC(=O)COCCOCCN4CCC(n5nc(-c6ccc(Oc7ccccc7)cc6)c6c(N)ncnc65)CC4)cc3C2=O)C1=O (stereo not drawn) [Compound 130, 2-(2-(2-(4-(4-amino-3-(4-phenoxyphenyl)-1H-pyrazolo[3,4-d]pyrimidin-1-yl)piperidin-1-yl)ethoxy)ethoxy)-N-(2-(1-methyl-2,6-dioxopiperidin-3-yl)-1,3-dioxoisoindolin-5-yl)acetamide]",ability to degrade BTK,[1]; NAMALWA cells,neither ibrutinib nor Compound 130 were able to induce degradation of BTK

# Source: patent US20200121684A1, “MODULATORS OF BTK PROTEOLYSIS AND METHODS OF USE” (Yale University, priority 2018, published 2020)
